The record followed here is patent US12208092B2, “Compositions and methods for administering paltusotine to patients with hepatic impairment” (CRINETICS PHARMACEUTICALS, INC., priority 2023, dated 2025).

The target of one series is SST2 (Homo sapiens, UniProt P30874). In words: bias of G-protein activation versus β-arrestin activation. The class given is cell-based.
A further series concerns plasma IGF-1. Nature of the series: chronic oral 14-day administration, suppression of IGF-1 in rat. The series is classed as in vivo. How it is done: The in vivo pharmacological efficacy of paltusotine has been examined in rat and dog. In the rat, acute efficacy was evaluated by examining the suppression of plasma GH in response to a challenge with rat growth hormone releasing hormone (rGHRH). […] The effects of chronic, oral, 14-day administration of paltusotine were evaluated by measuring the sustained suppression of IGF-1 in the rat.

In series [1] the test system is large panel of other known receptors, channels, and enzymes.
The nature of series [2]: Phase 1 mass balance (ADME) study, single oral 20 mg [14C]-paltusotine, healthy male volunteers. The series is classed as in vivo, human. The method, then: This was a Phase I, open-label, single-dose study with a primary objective to characterize the absorption, distribution, metabolism, excretion, and mass balance of a single oral dose of 20 mg paltusotine containing 3.0 MBq (80 μCi) of [^14C]-labeled paltusotine in healthy male subjects.
Subjects received a single oral dose of 20 mg paltusotine as an oral solution containing 3.0 MBq (80 μCi) of radioactivity on Day 1. For oral dosing, the total volume ingested by the subject, including the study drug (10 mL), the rinse solutions (a total of 100 mL; 2 drug vial rinses with 50 mL of water per rinse), and tap water (130 mL), was 240 mL. The subjects had to ingest all solutions in the upright position within 2 minutes between 8 AM and 11 AM after an overnight fast of at least 10 hours. Fasting continued for a period of 4 hours after oral drug administration. The time of oral dosing administration was recorded, and the empty study drug vials were measured for residual radioactivity.
Blood samples were taken for the analysis of unlabeled paltusotine and [^14C]-paltusotine concentrations, and metabolite profiling. Blood samples for analysis of pharmacokinetic parameters of paltusotine in plasma, quantification of total radioactivity in blood and plasma, and metabolite profiling were collected at predose and 0.25, 0.5, 0.75, 1, 1.5, 2, 3, 4, 8, 12, 24, 48, 72, 120, and 168 hours postdose (and every 48 hours thereafter, if needed, to assess radioactivity).
Urine was collected for the analysis of total radioactivity, for quick counts of total radioactivity, and for metabolite profiling. The subjects were instructed to urinate completely before study drug administration and at the end of each collection interval. A baseline urine sample was collected within 12 hours prior to each study drug administration. Urine was collected for quantification of total radioactivity and metabolite profiling at predose, 3 intervals on Day 1 (at 0-4, 4-8, and 8-24 hours postdose), and every 24 hours thereafter until discharge criteria were met.
All fecal excretions were collected for the analysis of total radioactivity, for quick counts of total radioactivity, and for metabolite profiling. A baseline fecal sample was collected within 48 hours prior to study drug administration and could be collected at home. The baseline sample was taken from the last bowel movement before study drug intake. Feces were collected for quantification of total radioactivity and metabolite profiling at predose and in 24-hour intervals until discharge criteria were met.
Analysis of paltusotine in plasma was performed by Q2 Solutions (IQVIA, Itaca, NY, USA) using a validated liquid chromatography-tandem mass spectrometry (LC-MS/MS) method. The lower limit of quantitation (LLOQ) for paltusotine in plasma was 0.5 ng/mL.
Analysis of total ^14C radioactivity in plasma, whole blood, urine, and feces was performed at the bioanalytic laboratory of PRA Heath Sciences via a validated liquid scintillation counting method. The LLOQ for total reactivity was 3.36 ng-eq/mL in plasma and 5.6 ng-eq/mL in whole blood.
Metabolite profiling of plasma, urine, and feces was performed at WuXi AppTec (Cranbury, NJ, USA). For plasma, samples were pooled by timepoint (0.5, 1, 1.5, 2, 4, 8, 12, and 24 hours postdose) for metabolite profiling. In addition, plasma samples were pooled by participant across timepoints (0-48 hours) using the Hamilton method and analyzed to determine the quantitative profile of radiolabeled components. Prior to radio-profiling, plasma samples were extracted using solid phase extraction.
For urine and feces, samples were pooled by timepoint (0-8, 8-24, and 24-72 hours postdose). Prior to radio-profiling, urine samples were centrifuged to remove solids, and fecal homogenates were extracted with acetonitrile. Plasma and fecal extracts and urine supernatants were subjected to LC separation and fraction collection. […]

[3] abbreviates: scaled from paltusotine and excretory metabolites.

SST2, sequence (P30874 whole entry): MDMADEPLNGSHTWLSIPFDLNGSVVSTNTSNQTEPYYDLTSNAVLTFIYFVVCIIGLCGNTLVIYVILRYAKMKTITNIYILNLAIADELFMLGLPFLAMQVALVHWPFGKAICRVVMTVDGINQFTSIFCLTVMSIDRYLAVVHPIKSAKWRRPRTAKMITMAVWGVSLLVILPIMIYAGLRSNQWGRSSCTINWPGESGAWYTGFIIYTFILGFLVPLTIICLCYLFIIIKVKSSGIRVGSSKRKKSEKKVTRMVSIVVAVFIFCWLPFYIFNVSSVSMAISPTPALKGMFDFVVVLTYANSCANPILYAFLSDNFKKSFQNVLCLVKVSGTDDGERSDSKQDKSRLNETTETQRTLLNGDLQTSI

As for `N#Cc1cccc(-c2ccc3ncc(-c4cc(F)cc(F)c4)c(N4CCC(N)CC4)c3c2)c1O` [paltusotine, 3-[4-(4-amino-1-piperidyl)-3-(3,5-difluorophenyl)-6-quinolyl]-2-hydroxybenzonitrile], the “bias for G-protein activation (lowering cAMP) compared to β-arrestin activation” value at SST2 is 75 fold. In addition, in the series with plasma IGF-1, the “dose efficacious in suppressing plasma IGF-1 for up to 14 days” value is reported as greater than 10 mg/kg/day. Besides, in series [1], the “selectivity for SST2 over panel of other receptors, channels, and enzymes” value is listed as greater than 2000 fold. For the same compound, the component in feces in series [2] (feces) is 39.7 % of the dose. Besides, the “drug-related components detected in plasma” value in series [2] (human plasma 0-48 h) is “the only drug-related component detected in human plasma (0-48 h) was paltusotine”. Besides, in series [2] (human, in vivo), the “administered radioactivity recovered in the feces” value is listed as 90%, the “administered radioactivity recovered in the urine” value is on record as 3.9%, the “dose excreted in the feces by metabolic profiling of excreta” value is on record as “approximately 84%” and the “total radioactivity excreted over 120 h” value is listed as 88 % of the administered dose. Also, in series [2] (setting [3]), the “glucuronidation pathway share of metabolic clearance” value is given as 27.9 % of the dose and the “oxidative route share of metabolic clearance” value was determined as 14.3%. Moreover, in series [2] (urine), the component in urine was 1.33 % of dose; the “unchanged paltusotine and metabolites excreted in urine” value is recorded as < 4 % of the total administered radioactivity. Moreover, in series [2] (urine and feces), the “total mean recovery of administered radioactivity” value came out at 94%.
